Legend:
Water solubility of salt = format: physicochemical
CNS nicotinic receptors = CNS nicotinic receptors (Rattus norvegicus, UniProt P09483+P12390); assay: Determination of binding to relevant receptor sites; settings: binding to certain CNS nicotinic receptors; read-out: Ki (inhibition constant, calculated from IC50 by the method of Cheng et al.)
Experimental: Determination of Binding to Relevant Receptor Sites
Binding of the compounds to relevant receptor sites was determined in accordance with the techniques described in U.S. Pat. No. 5,597,919 to Dull et al. Inhibition constants (Ki values), reported in nM, were calculated from the IC50 values using the method of Cheng et al., Biochem, Pharnacol. 22:3099 (1973).

[1] = Physical and chemical stability of salt; format: physicochemical
[2] = Water absorption (hygroscopicity) of salts; format: physicochemical

Sequence of CNS nicotinic receptors (P09483 31-630): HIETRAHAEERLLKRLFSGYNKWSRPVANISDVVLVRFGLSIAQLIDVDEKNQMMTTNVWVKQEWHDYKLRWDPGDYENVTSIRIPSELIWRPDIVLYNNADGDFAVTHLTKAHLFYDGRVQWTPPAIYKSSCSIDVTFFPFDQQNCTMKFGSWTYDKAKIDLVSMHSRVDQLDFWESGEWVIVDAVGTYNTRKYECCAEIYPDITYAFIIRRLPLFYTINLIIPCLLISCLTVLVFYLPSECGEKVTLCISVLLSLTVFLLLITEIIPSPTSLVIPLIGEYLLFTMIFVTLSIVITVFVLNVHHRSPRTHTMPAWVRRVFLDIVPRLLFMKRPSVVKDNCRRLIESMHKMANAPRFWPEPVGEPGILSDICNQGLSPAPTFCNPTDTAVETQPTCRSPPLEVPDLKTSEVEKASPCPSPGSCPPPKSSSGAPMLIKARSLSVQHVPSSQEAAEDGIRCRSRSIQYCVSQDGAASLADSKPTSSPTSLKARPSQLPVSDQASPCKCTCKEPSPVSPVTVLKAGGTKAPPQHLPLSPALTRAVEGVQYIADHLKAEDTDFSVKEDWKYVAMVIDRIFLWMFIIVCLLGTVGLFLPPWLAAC
Sequence of CNS nicotinic receptors (P12390 25-500): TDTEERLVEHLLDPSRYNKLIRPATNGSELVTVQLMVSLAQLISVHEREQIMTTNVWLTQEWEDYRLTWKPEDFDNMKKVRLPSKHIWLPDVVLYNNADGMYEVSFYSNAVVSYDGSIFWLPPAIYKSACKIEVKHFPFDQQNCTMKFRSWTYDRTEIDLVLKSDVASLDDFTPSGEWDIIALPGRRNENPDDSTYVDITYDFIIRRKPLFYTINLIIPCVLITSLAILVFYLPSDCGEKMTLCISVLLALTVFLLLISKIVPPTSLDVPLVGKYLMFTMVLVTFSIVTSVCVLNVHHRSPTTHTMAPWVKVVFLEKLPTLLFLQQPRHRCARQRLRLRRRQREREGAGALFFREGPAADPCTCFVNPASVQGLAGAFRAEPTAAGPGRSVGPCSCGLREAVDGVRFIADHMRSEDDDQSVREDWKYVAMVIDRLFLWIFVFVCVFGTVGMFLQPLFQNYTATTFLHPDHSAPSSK

Compound | water solubility (Water solubility of salt) | Ki (CNS nicotinic receptors) [nM] | stability [1] | amount of water absorbed ([2]; room temperature and 90% relative humidity) [%] | hygroscopicity compared with other salts ([2]; single salt: versus corresponding salt derived from galactaric acid (mucic acid)) | amount of water absorbed ([2]; 40° C. and 70% relative humidity) [%]
CN[C@@H](C)C/C=C/c1cncc(OC(C)C)c1 [Sample No. 2, (2S)-(4E)-N-methyl-5-[3-(5-isopropoxypyridin)yl]-4-penten-2-amine hemi-(di-p-toluoyl-D-tartrate)] | water soluble | 5 | physically and chemically stable | 3.2 | less hygroscopic | 
CN[C@@H](C)C/C=C/c1cncc(OC(C)C)c1 [Sample No. 1, (2S)-(4E)-N-methyl-5-[3-(5-isopropoxypyridin)yl]-4-penten-2-amine hemi-(di-p-toluoyl-L-tartrate)] |  | 6 |  |  |  | 
CN[C@@H](C)C/C=C/c1cncc(OC(C)C)c1.CN[C@@H](C)C/C=C/c1cncc(OC(C)C)c1.O=C(O)[C@@H](O)[C@H](O)[C@H](O)[C@@H](O)C(=O)O [hemigalactarate of (2S)-(4E)-N-methyl-5-[3-(5-isopropoxypyridin)yl)]-4-penten-2-amine, reference compound] |  |  |  |  |  | 11.8

Reference: US6743812B1, “Pharmaceutical compositions and methods for use” (Targacept, Inc., priority 2000, dated 2004)
